Assay results as given in patent US8715672B2, “Treatment of diseases linked to pathological kinin formation” (CSL Behring GmbH, priority 2004, dated 2014).

How the values were obtained:
wildtype mice = experiment: FeCl3-induced injury in the carotid artery after infusion of corn trypsin inhibitor; type: in vivo, mouse
Procedure: (§1) Alternatively, to test the impact of small molecule FXII inhibitors, wildtype mice were infused with the FXII inhibitor corn trypsin inhibitor (CTI, 50 μg/g body weight) 5 min prior to FeCl3-induced injury in the carotic artery (Wang et al. (2005) J. Thromb. Heamost. 3: 695-702). […] In none of the animals tested (0/4) vessel occluding thrombi developed within 30 min following application of FeCl3.

[1] = tested on: intrinsic coagulation pathway; experiment: aPTT of wildtype mice after infusion of corn trypsin inhibitor; type: in vivo, mouse; settings: CTI 50 μg/g body weight, n=4
Procedure: as §1
Global and single coagulation parameters were determined with an automated blood coagulation system (BCS, Dade Behring) with Dade Behring reagents according to the protocols for human samples detailed by the manufacturer. Principles of BCS assay protocols are available from Dade Behring package inserts, which can be found on Dade Behring's web site (http://www.dadebehring.com). D-dimers werde measured with the ELISA from Asserachrorn (Roche). Peripheral blood counts were determines on the Sysmex XE 2100 according to standard protocols.

## corn trypsin inhibitor [CTI]
Wildtype mice; CTI 50 μg/g 5 min prior to injury, carotid artery
  animals developing vessel occluding thrombi within 30 min following application of FeCl3: 0/4
Wildtype mice; CTI 50 μg/g body weight
  bleeding during the surgical procedure: did not affect bleeding
[1]
  aPTT: 62 ± 11 s
